Calls of active or inactive are those of the source. No cut-off for these calls is given here.

The subject of one experiment is Heart. The experiment is described as follows: Positive inotropic activity in rabbit heart assessed as increase in left atrium stroke volume at 3 X 10^-5 M. In kind it is functional, Oryctolagus cuniculus, Cardiac atrium.
The species entered for experiment [1] is Oryctolagus cuniculus. Description: Positive inotropic activity in perfused rabbit atrium assessed as increase in stroke volume at 1 X 10^-5 to 10^-4 M relative to control. To be noted: Cardiac atrium.
For experiment [2], the species on record is Oryctolagus cuniculus. Description: Positive inotropic activity in perfused beating rabbit atrium assessed as increase in stroke volume at 30 umol/l relative to control. The class given is functional, tissue-based. To be noted: Cardiac atrium.
Experiment [3] is filed under the species Oryctolagus cuniculus. Description: Positive inotropic activity in perfused rabbit atrium assessed as increase in stroke volume at 30 umol/l in presence of PKA inhibitor H-89 relative to control. In kind it is functional, tissue-based. Conditions: Cardiac atrium.
The species named for experiment [4] is Oryctolagus cuniculus. The experiment is described as follows: Positive inotropic activity in perfused rabbit atrium assessed as increase in stroke volume at 30 umol/l in presence of L-type Ca2+ channel blocker nifedipine relative to control. In kind it is functional, tissue-based. Conditions: Cardiac atrium.
The species entered for experiment [5] is Oryctolagus cuniculus. Description: Positive inotropic activity in perfused rabbit atrium assessed as increase in stroke volume at 30 umol/l in presence of adenylate cyclase activator forskolin relative to control. Conditions: Cardiac atrium. The class given is functional, tissue-based.
[6] abbreviates: Oryctolagus cuniculus, Cardiac atrium.

For `COc1ccc(CN2CCN(c3nn4nnnc4c4ccccc34)CC2)cc1`, the Activity in the experiment with Heart is given as 12.02%.
Same read-out and setting: for `COc1cccc(C(=O)N2CCN(c3nn4nnnc4c4ccccc34)CC2)c1` the value was 1.94%.
Consider `Cc1ccc(C(=O)N2CCN(c3nn4cnnc4c4ccccc34)CC2)cc1`, for which the outcome in the experiment listed under Oryctolagus cuniculus [1], in the experiment filed under Oryctolagus cuniculus [2] and in the experiment filed under Oryctolagus cuniculus [5] was Active. Besides, the outcome in the experiment listed under Oryctolagus cuniculus [3] and in the experiment filed under Oryctolagus cuniculus [4] was inactive. Moreover, the Activity with Heart was determined as 19.15%.
Consider `O=C(/C=C/c1ccc(Cl)cc1)N1CCN(c2nn3nnnc3c3ccccc23)CC1`, for which, in the experiment on Heart (setting [6]), the result was inactive.
As for `COc1cccc(/C=C/C(=O)N2CCN(c3nn4nnnc4c4ccccc34)CC2)c1`, in the experiment filed under Oryctolagus cuniculus [2], the result was Active. The Activity in the experiment on Heart came to 5.35%.
As for `O=C(/C=C/c1cccc(Br)c1)N1CCN(c2nn3cnnc3c3ccccc23)CC1`, the result in the experiment on Heart (setting [6]) was inactive.
The same measure, in the same setting: for `O=C(/C=C/c1ccccc1)N1CCN(c2nn3cnnc3c3ccccc23)CC1` the value was “inactive”.
The same measure, in the same setting: for `O=C(/C=C/c1ccc(F)cc1)N1CCN(c2nn3cnnc3c3ccccc23)CC1` the value was “inactive”; for `O=C(/C=C/c1ccc(Br)cc1)N1CCN(c2nn3nnnc3c3ccccc23)CC1`, “inactive”; for `O=C(/C=C/c1ccc(Br)cc1)N1CCN(c2nn3cnnc3c3ccccc23)CC1`, “inactive”.
With `O=C(c1ccc(F)cc1)N1CCN(c2nn3nnnc3c3ccccc23)CC1`, the outcome in the experiment filed under Oryctolagus cuniculus [2] was Active. Moreover, in the experiment on Heart, the Activity came to 4.73%.
In the case of `O=C(/C=C/c1cccc(Cl)c1)N1CCN(c2nn3nnnc3c3ccccc23)CC1`, the result in the experiment with Heart (setting [6]) was inactive.
Same read-out and setting: for `O=C(/C=C/c1cccc(Br)c1)N1CCN(c2nn3nnnc3c3ccccc23)CC1` the value was “inactive”.
As for `O=C(/C=C/c1ccccc1)N1CCN(c2nn3nnnc3c3ccccc23)CC1`, the result in the experiment filed under Oryctolagus cuniculus [2] was Active. The Activity in the experiment with Heart is 8.09%.
`O=C(/C=C/c1cccc(Cl)c1)N1CCN(c2nn3cnnc3c3ccccc23)CC1`: the outcome in the experiment with Heart (setting [6]) was inactive.
Take `COc1ccc(C(=O)N2CCN(c3nn4nnnc4c4ccccc34)CC2)cc1`: in the experiment listed under Oryctolagus cuniculus [2], the result was Active. Also, the Activity in the experiment on Heart was found to be 9.39%.
In the case of `COc1cccc(C(=O)N2CCN(c3nn4cnnc4c4ccccc34)CC2)c1`, in the experiment on Heart, the Activity amounted to 0.95%.
As to `O=C(c1ccc(Br)cc1)N1CCN(c2nn3cnnc3c3ccccc23)CC1`, in the experiment filed under Oryctolagus cuniculus [2], the result was Active. Further, the Activity in the experiment with Heart is given as 3.65%.
In the same order, the values of `COc1ccc(C(=O)N2CCN(c3nn4cnnc4c4ccccc34)CC2)cc1` are “Active” and 3.68%.
Regarding `O=C(/C=C/c1ccc(F)cc1)N1CCN(c2nn3nnnc3c3ccccc23)CC1`, the outcome with Heart (setting [6]) was inactive.
The same measure, in the same setting: for `O=C(c1ccccc1)N1CCN(c2nn3cnnc3c3ccccc23)CC1` the value was “inactive”.
Still for that read-out and setting: in the case of `O=C(/C=C/c1ccc(Cl)cc1)N1CCN(c2nn3cnnc3c3ccccc23)CC1` it was “inactive”.
On to `Cc1[nH]c(=O)c(C#N)cc1-c1ccncc1` [MILRINONE], for which the Activity with Heart was 2.46%.
Take `O=C(c1ccc(F)cc1)N1CCN(c2nn3cnnc3c3ccccc23)CC1`: in the experiment filed under Oryctolagus cuniculus [2], the outcome was Active. Further, the Activity in the experiment with Heart is listed as 2.91%.
In the same order, the values of `O=C(c1cccc(Cl)c1)N1CCN(c2nn3cnnc3c3ccccc23)CC1` are “Active” and 2.56%.
In the same order, the values of `Cc1ccc(/C=C/C(=O)N2CCN(c3nn4nnnc4c4ccccc34)CC2)cc1` are “Active” and 2.74%.
For `O=C(c1cccc(Br)c1)N1CCN(c2nn3nnnc3c3ccccc23)CC1`, in the experiment with Heart (setting [6]), the outcome was inactive.
Turning to `O=C(c1ccc(Br)cc1)N1CCN(c2nn3nnnc3c3ccccc23)CC1`, the outcome in the experiment filed under Oryctolagus cuniculus [2] was Active. The Activity in the experiment with Heart is 7.49%.
In the case of `O=C(c1cccc(Cl)c1)N1CCN(c2nn3nnnc3c3ccccc23)CC1`, the Activity with Heart was determined as 0.23%.
With `Cc1ccc(C(=O)N2CCN(c3nn4nnnc4c4ccccc34)CC2)cc1`, the outcome in the experiment listed under Oryctolagus cuniculus [2] was Active. Further, in the experiment with Heart, the Activity is recorded as 13.46%.
In the same order, the values of `O=C(c1ccc(Cl)cc1)N1CCN(c2nn3cnnc3c3ccccc23)CC1` are “Active” and 13.33%.
In the same order, the values of `COc1cccc(/C=C/C(=O)N2CCN(c3nn4cnnc4c4ccccc34)CC2)c1` are “Active” and 4.13%.
Turning to `O=C(c1ccccc1)N1CCN(c2nn3nnnc3c3ccccc23)CC1`, the result in the experiment on Heart (setting [6]) was inactive.
As to `O=C(c1cccc(Br)c1)N1CCN(c2nn3cnnc3c3ccccc23)CC1`, the result in the experiment listed under Oryctolagus cuniculus [2] was Active. In the experiment with Heart, the Activity was 8.49%.
As to `O=C(c1ccc(Cl)cc1)N1CCN(c2nn3nnnc3c3ccccc23)CC1`, the Activity in the experiment with Heart was determined as 2.05%.
Regarding `Cc1ccc(/C=C/C(=O)N2CCN(c3nn4cnnc4c4ccccc34)CC2)cc1`, the result in the experiment listed under Oryctolagus cuniculus [1] and in the experiment filed under Oryctolagus cuniculus [2] was Active. Further, the Activity with Heart came to 14.87%.

Source of the values: ChEMBL document CHEMBL3232771, “Synthesis and positive inotropic evaluation of [1,2,4]triazolo[3,4-a]phthalazine and tetrazolo[5,1-a]phthalazine derivatives bearing substituted piperazine moieties” (2014).
